Here are results for 2 compounds from US20230295212A1 (ROME Therapeutics, Inc., priority 2022, published 2023).

SMILES strings stand for the structures.

For data set [1], the target named is T1, LINE1 reverse transcriptase (Homo sapiens, UniProt O00370).
T1 construct: expressed in transfected cells; host or cells: HeLa Tet-On 3G (Takara, cat no 631183)
Briefly: Stable artificial-intron Cis LINE1 reporter assay (HeLa Tet-On 3G, Firefly luciferase). Type of data set: cell-based. As to conditions: HeLa L1 artificial-intron reporter cells, doxycycline 500 ng/mL, 72 h, class symbols. The method in brief: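 HeLa Tet-On 3G clone stably carrying a bi-directional doxycycline-inducible artificial-intron LINE1 reporter, plated at 8,000 cells/well onto serially diluted compound. Expression induced with 500 ng/mL doxycycline (final); Firefly luciferase luminescence (Dual-Glo) read 72 h after plating as LINE1 activity.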
(In general: In a reporter assay the amount or activity of a reporter protein is the signal.)

Data set [2] relates to phosphorylated TANK-binding kinase 1 (pTBK1). Put plainly: UVB-induced pTBK1 in HaCaT cells (ELISA). It counts as cell-based. As to the method:
pTBK1 is an important signaling molecule in regulating inflammatory responses. HaCaT cells were plated in 6-well plates at a density of ˜100 k/well in HaCaT media (DMEM, optimized 1×(Addex Bio)^+1% pen strep (Gibco)^+5% heat inactivated fetal bovine serum (Gibco)). The cells were then cultured at 37° C. overnight. The next day, the cells were treated with the test compounds. Each test compound was diluted and added to media aliquots to provide desired concentrations. To add the test compound+media mixture, an equivalent amount of media from each well was aspirated and then replenished with the media dosed with the test compound. The cells were then cultured for an additional 72 hours with compound treatment prior to UVB exposure.
The media was then aspirated from the wells, with the remaining cells at least 80% confluent in each well. One mL of PBS was then added to each well, and the plate was then placed under a UVB lamp. A UVB sensor was positioned near the plate to register the plate's exposure. The cells were exposed to the UVB light until they reached 0.1 mJ/cm2. […]
A RIPA lysis buffer (#BP-115, Boston BioProducts) was added to a Halt protease and […] inhibitor cocktail (#78440, ThermoFisher), and the mixture was cooled on ice. […] The protein concentration of the cell lysate was measured using Pierce™ Rapid Gold BCA Protein Assay Kit #AF3225 (ThermoFisher). […]

For data set [3], the system named is THP1-Dual KO-TREX1 xenograft tumors. Put plainly: Altering IFN production in THP1-Dual KO-TREX1 mouse xenografts (Compound 67). Type of data set: in vivo. The conditions noted are these: CB-17 SCID mice, decitabine 5 mg/kg SC, compound 0.3-100 mg/kg PO once daily 5 days, tumors 4 h post-last dose. As for the experimental part: Exemplary Compound 67 was tested for its ability to alter IFN levels in THP1-Dual™ KO-TREX1 xenografts in mice. Assay procedures are described below.
CB-17 SCID female mice were inoculated subcutaneously with 10 million THP1-Dual™ KO-TREX1 cells in 200 μl PBS with Matrigel (1:1) and grouped at N=5 per treatment per sampling timepoint when tumor volume reached an average of 340 mm^3. Six groups were co-administered: (1) decitabine (DAC) at 5 mg/kg SC, once daily, for 5 days, and (2) test compound 67 at one of six doses (0.3 mg/kg PO, 1 mg/kg PO, 3 mg/kg PO, 10 mg/kg PO, 30 mg/kg PO, 100 mg/kg PO) once daily, for 5 days. Two additional groups were administered (1) decitabine and test compound vehicle control SC+PO, once daily, for 5 days, and (2) decitabine at 5 mg/kg SC, once daily, for 5 days. […]
Tumors were harvested 4 h post-last dose administered on day 5, grinded in PBS at 50 Hz for 5 min, kept on ice for 30 min while being vortexed every 5 min. […] Equal amounts of proteins were added to 96-well black plates, and luciferase signal was measured using the QUANTI-Luc™ detection medium according to manufacturer's instructions. Luminescence was measured using the EnVision® 2105 Multimode Plate Reader.
Experimental results are depicted in FIG. 9. […] In FIG. 9, IFN signal was measured in tumors harvested from mice 4 hours after the final decitabine and test compound dosing on day 5.

T1 sequence (O00370 whole entry, looked up): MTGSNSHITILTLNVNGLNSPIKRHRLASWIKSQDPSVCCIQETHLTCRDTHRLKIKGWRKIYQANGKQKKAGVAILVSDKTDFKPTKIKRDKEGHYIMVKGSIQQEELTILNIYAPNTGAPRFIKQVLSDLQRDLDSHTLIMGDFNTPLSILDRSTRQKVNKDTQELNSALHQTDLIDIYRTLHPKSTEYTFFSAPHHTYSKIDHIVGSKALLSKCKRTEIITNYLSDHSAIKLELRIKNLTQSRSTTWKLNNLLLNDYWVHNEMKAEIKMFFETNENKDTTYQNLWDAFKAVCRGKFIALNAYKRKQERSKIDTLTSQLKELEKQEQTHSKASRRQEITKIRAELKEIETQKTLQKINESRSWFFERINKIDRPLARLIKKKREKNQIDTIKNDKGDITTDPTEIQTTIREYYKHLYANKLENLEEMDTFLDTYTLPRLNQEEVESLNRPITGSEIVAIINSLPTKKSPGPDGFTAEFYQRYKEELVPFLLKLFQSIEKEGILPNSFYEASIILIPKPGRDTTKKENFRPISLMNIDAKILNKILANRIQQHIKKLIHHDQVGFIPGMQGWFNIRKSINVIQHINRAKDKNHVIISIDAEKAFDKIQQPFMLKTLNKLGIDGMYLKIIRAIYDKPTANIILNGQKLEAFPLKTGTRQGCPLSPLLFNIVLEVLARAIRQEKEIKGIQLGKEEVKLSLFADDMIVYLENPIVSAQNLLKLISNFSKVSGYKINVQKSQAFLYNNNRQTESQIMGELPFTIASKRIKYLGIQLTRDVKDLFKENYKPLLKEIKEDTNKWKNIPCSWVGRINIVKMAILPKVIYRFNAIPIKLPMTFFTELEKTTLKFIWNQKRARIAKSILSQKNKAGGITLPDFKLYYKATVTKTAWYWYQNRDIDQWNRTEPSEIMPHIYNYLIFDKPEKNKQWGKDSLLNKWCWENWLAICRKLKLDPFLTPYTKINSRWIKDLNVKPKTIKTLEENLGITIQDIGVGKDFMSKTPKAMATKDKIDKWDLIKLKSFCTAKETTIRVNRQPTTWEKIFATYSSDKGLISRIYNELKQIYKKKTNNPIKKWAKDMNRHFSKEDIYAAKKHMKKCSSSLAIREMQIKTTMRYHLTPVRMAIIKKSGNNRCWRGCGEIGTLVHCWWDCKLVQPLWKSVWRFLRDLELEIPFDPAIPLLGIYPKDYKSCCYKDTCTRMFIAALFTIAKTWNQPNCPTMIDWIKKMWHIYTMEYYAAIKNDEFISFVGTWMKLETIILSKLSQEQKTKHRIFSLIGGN

In data set [1], `Nc1nc(=O)n([C@H]2C[C@H](O)[C@](CO)(CCl)O2)cc1F` [Compound 14, 4-amino-1-((2R,4S,5R)-5-(chloromethyl)-4-hydroxy-5-(hydroxymethyl)tetrahydrofuran-2-yl)-5-fluoropyrimidin-2(1H)-one] registered an IC50 of at most 50 nM. In addition, the “cytotoxicity, concentration” value in data set [2] was at least 30 µM.

On to `Nc1nc(=O)n([C@@H]2O[C@@](CO)(CCl)[C@@H](O)[C@@H]2F)cc1F` [Compound 67, 4-amino-1-[(2R,3S,4R,5R)-5-(chloromethyl)-3-fluoro-4-hydroxy-5-(hydroxymethyl)oxolan-2-yl]-5-fluoropyrimidin-2-one], for which the IC50 in data set [1] was at most 50 nM. In data set [3], the “inhibition of DAC-induced IFN signal in THP1 tumors” value is listed as “dose-response inhibition of DAC-induced IFN signal”.

For orientation: IC50 means the concentration that inhibits the measured activity by half. Read a high IC50 as weaker potency in that assay.
